Measured values taken from US20030176456A1, “Methods for reducing alcohol cravings in chronic alcoholics” (priority 2001, published 2003).

Columns and labels:
GABAA α4β3γ2 receptors = test: Xenopus oocyte expression assay, modulation of GABA current; format: cell-based, rat
GABAA α2β3γ2 receptors = test: as above; format: cell-based, rat; details: saturating 1-10 μM modulator with EC50 GABA (50 μM); mean±S.D.
GABAA α1β3γ2 receptors = target: T1, GABAA α1β3γ2 receptors (Rattus norvegicus, UniProt P18508+P62813); test: as above; format: cell-based; details: saturating 1-10 μM modulator with EC50 GABA (50 μM); mean±S.D.
T1 construct: expressed in transfected cells; host or cells: Xenopus laevis oocytes injected with cRNA

mice = details: doses as high as 60 mg/kg (Griebel et al., 1999); cited from earlier work
[1] = test system: high-alcohol drinking (HAD-1) rats; test: Operant self-administration, EtOH (and alternate-day sucrose); format: in vivo, rat
Protocol: Operant, Self-administration Apparatus, Training, and Drug Treatment Procedures Behavioral Testing Apparatus. Behavioral testing was conducted in 15 standard operant chambers (Coulbourn Instruments, Allentown, Pa.) equipped with two removable levers and two dipper fluid delivery systems enclosed in sound-attenuated cubicles as previously described (June et al., 1998b; 1998e). All dipper presentations provided a 1.5-sec access to a 0.1-ml dipper, followed by a 3-sec time out period. Above each lever, three stimulus lights (red, green and yellow) were present, and a stimulus delivery/reinforcer was indicated by illumination of the middle (green) stimulus light. Responses and reinforcements were recorded and controlled by a Dell computer using the 4.0 Coulbourn L2T2 operant software package.
HAD-1 Rats. To assess the capacity of βCCt to modulate EtOH responding in the VP, rats were trained to lever press for alcohol only (see below). However, an alternate-day access paradigm was employed to investigate the capacity of systemic injections of βCCt to modify EtOH and sucrose-maintained responding. […] In the VP study rats were initially trained to orally self-administer EtOH and water in daily 60 min sessions on a concurrent FRI schedule in a two-lever choice situation. After a period of stabilization on the FRI schedule, the response requirement was increased to a concurrent FR4 schedule and the water reinforcer was gradually eliminated from the protocol and replaced with EtOH. Thus, the VP HAD-1 rats responded concurrently for EtOH solutions on both levers. The VP HAD rats were then stabilized on this regimen for 3 weeks prior to any microinfusions. Responding was considered stable when responses were within ±20% of the average responses for five consecutive days.
Rats in, the systemic study were trained in a similar manner as the VP animals, except that after a 2 week stabilization period on the concurrently presented EtOH solutions, a series of preliminary studies were conducted to determine the sucrose concentration that produced response rates and profiles similar to that of EtOH during an alternate-day presentation schedule. Following this determination, rats were then stabilized on a regimen of 10% (v/v) EtOH on day 1, and 1% (w/v) sucrose on day 2. This alternate day paradigm continued until a two weeks. After this final stabilization period, the drug treatment phase began. Again, responding was considered stable when responses were within ±20% of the average responses for five consecutive days. The position of the levers and associated dippers for each reinforcer was alternated daily to control for the establishment of lever preference under all concurrent schedules when two different reinforcers were present.
βCCt was administered 15 min before the operant session to allow for optimal absorption and CNS distribution. βCCt was tested at doses of 1-40 mg/kg. The duration of the operant sessions was 60 min, however, subjects were tested at 24 and 48 hours post-drug administration to determine if any residual drug effects remained. A minimum of 72 and maximum of 96 hours was allocated between drug treatments to permit animals to return to baseline levels. This period prevented confounding of drug treatments due to residual effects. […] All systemic drug treatments were given in a randomized design.
The microinfusions were delivered immediately before the operant session with a Harvard infusion pump, during which time animals were able to move about freely in their home cages (for details see June et al., 2001). The injection cannula extended 1 mm beyond the tip of the guide cannulae. βCCt was dissolved in artificial cerebrospinal fluid (aCSF) (composition in mM: NaCl, 120; KCl, 4.8; KH2PO4, 1.2; MgSO4, 1.2; NaHCO3, 25; CaCl2, 2.5; d-glucose, 10). […]

α1β3γ2 GABAA receptor = target: T2, α1β3γ2 GABAA receptor (Homo sapiens, UniProt P14867+P18507); details: recombinant receptors (Cox et al., 1995); cited from earlier work
T2 construct: expressed in transfected cells
T2 sequence (P14867 28-456): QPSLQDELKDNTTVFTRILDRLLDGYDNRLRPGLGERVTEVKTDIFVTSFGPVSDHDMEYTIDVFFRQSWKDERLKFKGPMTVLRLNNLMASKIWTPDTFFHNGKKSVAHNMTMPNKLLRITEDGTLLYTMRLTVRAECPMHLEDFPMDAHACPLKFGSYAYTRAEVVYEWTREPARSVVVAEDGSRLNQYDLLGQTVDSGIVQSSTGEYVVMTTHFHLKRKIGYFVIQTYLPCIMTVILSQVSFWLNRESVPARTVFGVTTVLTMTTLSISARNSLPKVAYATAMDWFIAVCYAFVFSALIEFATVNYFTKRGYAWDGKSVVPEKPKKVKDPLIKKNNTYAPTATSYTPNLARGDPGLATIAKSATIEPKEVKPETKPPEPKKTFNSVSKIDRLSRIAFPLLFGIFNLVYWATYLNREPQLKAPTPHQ
T2 sequence (P28472 26-473 partner): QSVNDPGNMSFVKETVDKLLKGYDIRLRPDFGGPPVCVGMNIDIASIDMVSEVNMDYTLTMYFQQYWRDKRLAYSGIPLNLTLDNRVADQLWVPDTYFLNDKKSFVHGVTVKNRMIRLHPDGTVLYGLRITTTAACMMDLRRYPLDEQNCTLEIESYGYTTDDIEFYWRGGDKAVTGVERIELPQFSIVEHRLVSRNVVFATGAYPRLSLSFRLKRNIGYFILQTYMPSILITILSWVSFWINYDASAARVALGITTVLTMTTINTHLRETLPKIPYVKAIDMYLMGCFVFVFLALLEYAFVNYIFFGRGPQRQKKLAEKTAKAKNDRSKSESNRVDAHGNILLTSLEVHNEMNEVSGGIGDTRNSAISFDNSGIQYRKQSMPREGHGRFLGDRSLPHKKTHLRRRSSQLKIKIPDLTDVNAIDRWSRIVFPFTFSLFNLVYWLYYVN
T2 sequence (P18507 40-475): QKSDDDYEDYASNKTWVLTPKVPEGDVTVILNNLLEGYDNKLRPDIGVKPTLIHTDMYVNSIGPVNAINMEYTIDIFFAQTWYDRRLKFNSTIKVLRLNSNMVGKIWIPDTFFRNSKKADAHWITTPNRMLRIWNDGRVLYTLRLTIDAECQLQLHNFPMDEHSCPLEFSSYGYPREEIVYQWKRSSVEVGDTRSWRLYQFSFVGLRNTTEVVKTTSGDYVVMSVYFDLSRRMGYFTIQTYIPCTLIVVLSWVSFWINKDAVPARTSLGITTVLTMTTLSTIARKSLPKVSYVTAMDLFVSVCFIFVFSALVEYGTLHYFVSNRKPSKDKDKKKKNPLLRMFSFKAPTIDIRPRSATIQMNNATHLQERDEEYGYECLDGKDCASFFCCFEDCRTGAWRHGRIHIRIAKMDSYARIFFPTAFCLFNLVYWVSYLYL

T1 sequence (P62813 28-455): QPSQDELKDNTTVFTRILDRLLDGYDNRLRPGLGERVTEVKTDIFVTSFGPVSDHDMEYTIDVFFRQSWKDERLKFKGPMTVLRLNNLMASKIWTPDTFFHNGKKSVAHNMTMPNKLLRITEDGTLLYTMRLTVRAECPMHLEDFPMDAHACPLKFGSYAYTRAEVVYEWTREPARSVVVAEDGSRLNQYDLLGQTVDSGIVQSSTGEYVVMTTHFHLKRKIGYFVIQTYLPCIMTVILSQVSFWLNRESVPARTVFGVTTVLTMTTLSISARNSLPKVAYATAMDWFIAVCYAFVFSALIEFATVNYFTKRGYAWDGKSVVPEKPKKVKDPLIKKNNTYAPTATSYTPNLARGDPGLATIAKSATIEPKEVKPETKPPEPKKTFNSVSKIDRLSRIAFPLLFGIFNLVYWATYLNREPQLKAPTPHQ
T1 sequence (P63079 26-473 partner): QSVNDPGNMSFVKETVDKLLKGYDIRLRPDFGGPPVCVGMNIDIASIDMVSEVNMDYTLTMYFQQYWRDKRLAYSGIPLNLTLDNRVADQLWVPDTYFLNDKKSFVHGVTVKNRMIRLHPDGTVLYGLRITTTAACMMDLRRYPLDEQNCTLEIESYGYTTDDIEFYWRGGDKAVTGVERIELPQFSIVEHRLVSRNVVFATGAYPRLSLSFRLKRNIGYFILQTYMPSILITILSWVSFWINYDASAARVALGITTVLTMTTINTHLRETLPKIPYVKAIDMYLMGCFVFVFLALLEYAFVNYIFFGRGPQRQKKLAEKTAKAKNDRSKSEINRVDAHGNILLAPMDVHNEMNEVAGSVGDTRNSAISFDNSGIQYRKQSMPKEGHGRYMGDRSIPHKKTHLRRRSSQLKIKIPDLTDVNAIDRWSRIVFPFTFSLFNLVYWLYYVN
T1 sequence (P18508 39-466): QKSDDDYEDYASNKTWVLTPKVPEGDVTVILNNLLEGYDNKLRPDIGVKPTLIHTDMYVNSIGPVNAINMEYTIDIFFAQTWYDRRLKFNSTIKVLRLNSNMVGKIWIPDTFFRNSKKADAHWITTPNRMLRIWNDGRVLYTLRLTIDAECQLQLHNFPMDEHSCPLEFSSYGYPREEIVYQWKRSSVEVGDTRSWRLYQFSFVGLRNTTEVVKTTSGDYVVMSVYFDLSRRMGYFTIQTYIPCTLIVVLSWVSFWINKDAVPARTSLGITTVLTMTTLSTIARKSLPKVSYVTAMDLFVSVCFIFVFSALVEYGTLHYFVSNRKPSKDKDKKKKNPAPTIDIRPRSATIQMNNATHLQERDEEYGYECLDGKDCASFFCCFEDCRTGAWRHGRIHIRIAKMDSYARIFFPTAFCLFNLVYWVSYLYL

| SMILES | % of GABA response, α4 (GABAA α4β3γ2 receptors) [%] | % of GABA response, α2 (GABAA α2β3γ2 receptors) [%] | % of GABA response, α1 (GABAA α1β3γ2 receptors) [%] | intrinsic activity in the open field (mice) | dose required to reduce sucrose reinforcer compared to alcohol ([1]; i.p.) | sucrose-maintained responding ([1]; i.p. 10 mg/kg) | EtOH-maintained responding ([1]; i.p. 1-10 mg/kg, alternate-day access) | reduction of EtOH responding 24 hr post-drug ([1]; unilateral VP infusion 2.5-7.5 μg, 24 hr post-drug administration) | EtOH-maintained responding ([1]; unilateral infusion 0.5-7.5 μg into VP) | alcohol-maintained responding ([1]; unilateral infusion into CPu/NACC) | selectivity for A1 over the A5 subtype (α1β3γ2 GABAA receptor) [fold] | selectivity for GABAA1 over the A2 and A3 receptors (α1β3γ2 GABAA receptor) [fold] |
| --- | --- | --- | --- | --- | --- | --- | --- | --- | --- | --- | --- | --- |
| CCCOc1cc2c(cn1)[nH]c1ccccc12.Cl [3-PBC, 3-Propoxy-β-carboline hydrochloride] | 129±3 | 116±7 | 113±4 | – | – | – | – | – | – | – | – | – |
| CC(C)(C)OC(=O)c1cc2c(cn1)[nH]c1ccccc12 [βCCt, β-carboline-3-carboxylate t-butyl ester] | – | – | – | failed to produce intrinsic activity | four-fold higher dose | marked suppression | dose-dependently suppressed | 54-63 % of control levels | dose-dependently reduced | completely ineffective | > 110 | > 10 |
